Experiments:
Assay type in all cases: functional, cell-based
[1] = tested on: Ca-Ski; assay: cells; conditions: Homo sapiens;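 further: cell viability assay measuring inhibition of Ca-Ski cell growth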
Description: SANGER: Inhibition of human Ca-Ski cell growth in a cell viability assay.

[2] = tested on: Calu-1; assay: SANGER: Inhibition of human Calu-1 cell growth in a cell viability assay.
[3] = tested on: Daudi; assay: cells; conditions: Homo sapiens;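 further: growth inhibition of Daudi cells, read out by a viability assay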
Description: SANGER: Inhibition of human Daudi cell growth in a cell viability assay.

[4] = tested on: EFE-184; assay: cells; conditions: Homo sapiens
Description: SANGER: Inhibition of human EFE-184 cell growth in a cell viability assay.

[5] = tested on: EFO-27; assay: cells; conditions: Homo sapiens;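 further: growth inhibition of EFO-27 cells, read out with a cell viability assay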
Description: SANGER: Inhibition of human EFO-27 cell growth in a cell viability assay.

[6] = tested on: HCC1937; assay: cells; conditions: Homo sapiens;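 further: growth inhibition measured with a cell viability read-out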
Description: SANGER: Inhibition of human HCC1937 cell growth in a cell viability assay.

[7] = tested on: HT-1376; assay: cells; conditions: Homo sapiens
Description: SANGER: Inhibition of human HT-1376 cell growth in a cell viability assay.

[8] = tested on: HT-29; assay: cells; conditions: Homo sapiens;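 further: growth inhibition of human HT-29 cells, read out by a cell viability assay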
Description: SANGER: Inhibition of human HT-29 cell growth in a cell viability assay.

[9] = tested on: HuP-T3; assay: cells; conditions: Homo sapiens;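 further: HuP-T3 cell growth inhibition, read out with a cell viability assay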
Description: SANGER: Inhibition of human HuP-T3 cell growth in a cell viability assay.

[10] = tested on: IGR-1; assay: cells; conditions: Homo sapiens;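 further: growth inhibition of human IGR-1 cells, read out with a cell viability assay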
Description: SANGER: Inhibition of human IGR-1 cell growth in a cell viability assay.

[11] = tested on: KARPAS-422; assay: cells; conditions: Homo sapiens
Description: SANGER: Inhibition of human KARPAS-422 cell growth in a cell viability assay.

[12] = tested on: KYSE-510; assay: cells; conditions: Homo sapiens;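 further: cell viability readout used to measure how strongly growth of the cell line is suppressed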
Description: SANGER: Inhibition of human KYSE-510 cell growth in a cell viability assay.

[13] = tested on: KYSE-520 cell line; assay: cells; conditions: Homo sapiens;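 further: growth inhibition of human KYSE-520 cells, read out with a viability assay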
Description: SANGER: Inhibition of human KYSE-520 cell growth in a cell viability assay.

[14] = tested on: L-540; assay: cells; conditions: Homo sapiens;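 further: growth inhibition of the human L-540 cell line, read out with a viability assay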
Description: SANGER: Inhibition of human L-540 cell growth in a cell viability assay.

[15] = tested on: LB996-RCC; assay: cells; conditions: Homo sapiens
Description: SANGER: Inhibition of human LB996-RCC cell growth in a cell viability assay.

[16] = tested on: LU-165; assay: cells; conditions: Homo sapiens
Description: SANGER: Inhibition of human LU-165 cell growth in a cell viability assay.

[17] = tested on: MDA-MB-134-VI; assay: cells; conditions: Homo sapiens
Description: SANGER: Inhibition of human MDA-MB-134-VI cell growth in a cell viability assay.

[18] = tested on: MDA-MB-468; assay: cells; conditions: Homo sapiens
Description: SANGER: Inhibition of human MDA-MB-468 cell growth in a cell viability assay.

[19] = tested on: MG-63; assay: cells; conditions: Homo sapiens;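 further: growth inhibition of human MG-63 cells, read out with a cell viability assay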
Description: SANGER: Inhibition of human MG-63 cell growth in a cell viability assay.

[20] = tested on: NCI-H1694; assay: cells; conditions: Homo sapiens;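 further: cell viability assay measuring inhibition of growth in human NCI-H1694 cells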
Description: SANGER: Inhibition of human NCI-H1694 cell growth in a cell viability assay.

[21] = tested on: NCI-H1703; assay: cells; conditions: Homo sapiens;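 further: growth inhibition of NCI-H1703 cells, read out via a cell viability assay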
Description: SANGER: Inhibition of human NCI-H1703 cell growth in a cell viability assay.

[22] = tested on: NCI-H1734; assay: cells; conditions: Homo sapiens;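 further: growth inhibition of human NCI-H1734 cells, read out with a cell viability assay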
Description: SANGER: Inhibition of human NCI-H1734 cell growth in a cell viability assay.

[23] = tested on: NCI-H1755; assay: cells; conditions: Homo sapiens;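 further: cell viability readout used to measure growth inhibition of NCI-H1755 cells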
Description: SANGER: Inhibition of human NCI-H1755 cell growth in a cell viability assay.

[24] = tested on: NCI-H2009; assay: cells; conditions: Homo sapiens;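 further: cell viability assay measuring inhibition of NCI-H2009 cell growth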
Description: SANGER: Inhibition of human NCI-H2009 cell growth in a cell viability assay.

[25] = tested on: NCI-H2030; assay: cells; conditions: Homo sapiens;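 further: growth inhibition of human NCI-H2030 cells, read out by a cell viability assay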
Description: SANGER: Inhibition of human NCI-H2030 cell growth in a cell viability assay.

[26] = tested on: NCI-H2052; assay: cells; conditions: Homo sapiens;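 further: growth inhibition of NCI-H2052 cells, read out with a cell viability assay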
Description: SANGER: Inhibition of human NCI-H2052 cell growth in a cell viability assay.

[27] = tested on: NCI-H2141; assay: cells; conditions: Homo sapiens;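 further: growth inhibition of human NCI-H2141 cells, read out with a cell viability assay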
Description: SANGER: Inhibition of human NCI-H2141 cell growth in a cell viability assay.

[28] = tested on: NCI-H2342; assay: cells; conditions: Homo sapiens;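 further: growth inhibition of the cancer cell line, determined with a cell viability assay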
Description: SANGER: Inhibition of human NCI-H2342 cell growth in a cell viability assay.

[29] = tested on: NCI-H292; assay: cells; conditions: Homo sapiens;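 further: growth inhibition of NCI-H292 cells, read out with a cell viability assay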
Description: SANGER: Inhibition of human NCI-H292 cell growth in a cell viability assay.

[30] = tested on: NCI-H322M; assay: cells; conditions: Homo sapiens;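 further: cell viability assay measuring inhibition of growth of human NCI-H322M cells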
Description: SANGER: Inhibition of human NCI-H322M cell growth in a cell viability assay.

[31] = tested on: NCI-H345; assay: cells; conditions: Homo sapiens;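 further: growth inhibition of NCI-H345 cells measured with a cell viability assay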
Description: SANGER: Inhibition of human NCI-H345 cell growth in a cell viability assay.

[32] = tested on: SNU-16; assay: cells; conditions: Homo sapiens;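 further: growth inhibition of human SNU-16 cells, determined with a cell viability readout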
Description: SANGER: Inhibition of human NCI-SNU-16 cell growth in a cell viability assay.

[33] = tested on: P12-Ichikawa; assay: cells; conditions: Homo sapiens
[34] = tested on: P31-FUJ; assay: cells; conditions: Homo sapiens;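 further: growth inhibition of P31-FUJ cells, read out with a viability assay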
Description: SANGER: Inhibition of human P31-FUJ cell growth in a cell viability assay.

[35] = tested on: PA-1; assay: cells; conditions: Homo sapiens;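 further: IC50 for suppression of PA-1 cell proliferation, determined with a cell viability read-out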
Description: SANGER: Inhibition of human PA-1 cell growth in a cell viability assay.

[36] = tested on: PANC-03-27; assay: cells; conditions: Homo sapiens
Description: SANGER: Inhibition of human PANC-03-27 cell growth in a cell viability assay.

[37] = tested on: PC-14; assay: cells; conditions: Homo sapiens;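 further: cell viability assay measuring inhibition of PC-14 cell growth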
Description: SANGER: Inhibition of human PC-14 cell growth in a cell viability assay.

[38] = tested on: PLC-PRF-5; assay: cells; conditions: Homo sapiens;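 further: growth inhibition of human PLC-PRF-5 cells, read out with a viability assay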
Description: SANGER: Inhibition of human PLC-PRF-5 cell growth in a cell viability assay.

[39] = tested on: RCM-1; assay: cells; conditions: Homo sapiens;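 further: growth inhibition of the RCM-1 line, determined with a cell viability readout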
Description: SANGER: Inhibition of human RCM-1 cell growth in a cell viability assay.

[40] = tested on: RPMI-2650; assay: cells; conditions: Homo sapiens
Description: SANGER: Inhibition of human RPMI-2650 cell growth in a cell viability assay.

[41] = tested on: RVH-421; assay: cells; conditions: Homo sapiens
Description: SANGER: Inhibition of human RVH-421 cell growth in a cell viability assay.

[42] = tested on: SCC-25; assay: cells; conditions: Homo sapiens;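 further: growth inhibition of SCC-25 cells, measured with a cell viability assay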
Description: SANGER: Inhibition of human SCC-25 cell growth in a cell viability assay.

[43] = tested on: SK-MEL-30; assay: cells; conditions: Homo sapiens;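 further: growth inhibition of SK-MEL-30 cells, determined with a cell viability assay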
Description: SANGER: Inhibition of human SK-MEL-30 cell growth in a cell viability assay.

[44] = tested on: SN12C; assay: cells; conditions: Homo sapiens;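 further: growth inhibition of human SN12C cells, measured by a cell viability assay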
Description: SANGER: Inhibition of human SN12C cell growth in a cell viability assay.

[45] = tested on: SU-DHL-1; assay: SANGER: Inhibition of human SU-DHL-1 cell growth in a cell viability assay.
[46] = tested on: T-24; assay: cells; conditions: Homo sapiens;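 further: growth inhibition of T-24 cells, read out with a cell viability assay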
Description: SANGER: Inhibition of human T-24 cell growth in a cell viability assay.

[47] = tested on: 23132-87; assay: cells; conditions: Homo sapiens
Description: SANGER: Inhibition of human 23132-87 cell growth in a cell viability assay.

[48] = tested on: 647-V; assay: cells; conditions: Homo sapiens;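 further: growth inhibition of 647-V cells, read out with a cell viability assay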
Description: SANGER: Inhibition of human 647-V cell growth in a cell viability assay.

[49] = tested on: A2058; assay: cells; conditions: Homo sapiens;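 further: reduction of A2058 cell growth, read out with a viability assay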
Description: SANGER: Inhibition of human A2058 cell growth in a cell viability assay.

[50] = tested on: A253 cell line; assay: cells; conditions: Homo sapiens;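 further: growth inhibition of A253 cells, read out with a cell viability assay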
Description: SANGER: Inhibition of human A253 cell growth in a cell viability assay.

[51] = tested on: A673; assay: cells; conditions: Homo sapiens;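 further: growth inhibition of human A673 cells, read out through a cell viability assay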
Description: SANGER: Inhibition of human A673 cell growth in a cell viability assay.

[52] = tested on: ARH-77; assay: cells; conditions: Homo sapiens;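 further: growth inhibition of ARH-77 cells, read out by a cell viability assay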
Description: SANGER: Inhibition of human ARH-77 cell growth in a cell viability assay.

[53] = tested on: BXPC-3; assay: cells; conditions: Homo sapiens;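 further: growth inhibition of human BxPC-3 cells, read out by a cell viability assay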
Description: SANGER: Inhibition of human BxPC-3 cell growth in a cell viability assay.

[54] = tested on: C-33-A; assay: cells; conditions: Homo sapiens;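 further: cell viability assay measuring growth inhibition of C-33-A cells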
Description: SANGER: Inhibition of human C-33-A cell growth in a cell viability assay.

[55] = tested on: CAL-51; assay: cells; conditions: Homo sapiens;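 further: human CAL-51 cell line, growth inhibition read out via a cell viability assay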
Description: SANGER: Inhibition of human CAL-51 cell growth in a cell viability assay.

[56] = tested on: CAL-62; assay: cells; conditions: Homo sapiens;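 further: growth inhibition of CAL-62 cells, read out with a cell viability assay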
Description: SANGER: Inhibition of human CAL-62 cell growth in a cell viability assay.

[57] = tested on: TYK-nu; assay: cells; conditions: Homo sapiens;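 further: growth inhibition of human TYK-nu cells, read out by a cell viability assay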
Description: SANGER: Inhibition of human TYK-nu cell growth in a cell viability assay.

[58] = tested on: UMUC3; assay: cells; conditions: Homo sapiens;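 further: growth inhibition of human UM-UC-3 cells, read out with a cell viability assay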
Description: SANGER: Inhibition of human UM-UC-3 cell growth in a cell viability assay.

Q: How did the IC50 [1] turn out when C/C=C(/C)C(=O)O[C@H]1C(C)=C2[C@H]([C@@H]1OC(=O)CCCCCCC)[C@@](C)(OC(C)=O)C[C@H](OC(=O)CCC)[C@@]1(O)[C@H]2OC(=O)[C@@]1(C)O [THAPSIGARGIN] was run?
A: 0.0322 µM

Q: And the IC50 [2]?
A: 0.0021 µM

Q: And the IC50 [3]?
A: 0.00363 µM

Q: And the IC50 [4]?
A: > 0.512 µM

Q: And the IC50 [5]?
A: 0.0254 µM

Q: What about the IC50 [6] of the same compound?
A: 0.000927 µM

Q: And the IC50 [7]?
A: 0.00275 µM

Q: What about the IC50 [8] of the same compound?
A: 0.0054 µM

Q: What about the IC50 [9] of the same compound?
A: 0.0181 µM

Q: And the IC50 [10]?
A: 0.0105 µM

Q: What about the IC50 [11] of the same compound?
A: 0.0239 µM

Q: What about the IC50 [12] of the same compound?
A: < 0.002 µM

Q: And the IC50 [13]?
A: 0.0207 µM

Q: What about the IC50 [14] of the same compound?
A: 0.0752 µM

Q: And the IC50 [15]?
A: 0.0313 µM

Q: And the IC50 [16]?
A: > 0.512 µM

Q: And the IC50 [17]?
A: > 0.512 µM

Q: What about the IC50 [18] of the same compound?
A: 0.00398 µM

Q: What about the IC50 [19] of the same compound?
A: 0.00279 µM

Q: What about the IC50 [20] of the same compound?
A: 0.0728 µM

Q: And the IC50 [21]?
A: 0.0101 µM

Q: What about the IC50 [22] of the same compound?
A: 0.00148 µM

Q: What about the IC50 [23] of the same compound?
A: 0.31 µM

Q: And the IC50 [24]?
A: 0.00163 µM

Q: What about the IC50 [25] of the same compound?
A: 0.00405 µM

Q: And the IC50 [26]?
A: 0.0064 µM

Q: And the IC50 [27]?
A: 0.085 µM

Q: And the IC50 [28]?
A: < 0.002 µM

Q: What about the IC50 [29] of the same compound?
A: 0.0149 µM

Q: And the IC50 [30]?
A: > 0.512 µM

Q: And the IC50 [31]?
A: 0.037 µM

Q: And the IC50 [32]?
A: 0.189 µM

Q: And the IC50 [33]?
A: 0.0245 µM

Q: What about the IC50 [34] of the same compound?
A: 0.0721 µM

Q: And the IC50 [35]?
A: 0.000698 µM

Q: What about the IC50 [36] of the same compound?
A: < 0.002 µM

Q: And the IC50 [37]?
A: 0.00801 µM

Q: And the IC50 [38]?
A: 0.0918 µM

Q: And the IC50 [39]?
A: 0.122 µM

Q: What about the IC50 [40] of the same compound?
A: 0.00274 µM

Q: What about the IC50 [41] of the same compound?
A: 0.00367 µM

Q: What about the IC50 [42] of the same compound?
A: 0.00971 µM

Q: And the IC50 [43]?
A: 0.00324 µM

Q: And the IC50 [44]?
A: 0.0166 µM

Q: And the IC50 [45]?
A: > 0.512 µM

Q: What about the IC50 [46] of the same compound?
A: 0.0123 µM

Q: What about the IC50 [47] of the same compound?
A: 0.0314 µM

Q: And the IC50 [48]?
A: 0.0137 µM

Q: What about the IC50 [49] of the same compound?
A: 0.00269 µM

Q: And the IC50 [50]?
A: 0.00173 µM

Q: And the IC50 [51]?
A: 0.00724 µM

Q: What about the IC50 [52] of the same compound?
A: 0.0751 µM

Q: What about the IC50 [53] of the same compound?
A: 0.00653 µM

Q: And the IC50 [54]?
A: 0.00977 µM

Q: And the IC50 [55]?
A: 0.000971 µM

Q: What about the IC50 [56] of the same compound?
A: 0.0716 µM

Q: What about the IC50 [57] of the same compound?
A: < 0.002 µM

Q: What about the IC50 [58] of the same compound?
A: 0.00121 µM

Reference: ChEMBL document CHEMBL1201861, “Genomics of Drug Sensitity in Cancer screening data, Wellcome Trust Sanger Institute”
